Measured values from patent US8686044B2, “Amide derivative, pest control agent containing the amide derivative, and use of the amide derivative” (Mitsui Chemicals Agro, Inc., priority 2008, dated 2014).

Tests used:
Type in all cases: in vivo
[1] = tested on: Choristoneura magnanima; test: Pesticidal test against Choristoneura magnanima (artificial feed dip); details: 144 h, 2-stage larvae, examined after 6 days, 25° C., read-out: pesticidal rate; for pest or weed control at 1 ppm: concentration 1 ppm; for pest or weed control at 10 ppm: concentration 10 ppm
In short: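 Thin artificial feed slices dipped 30 s in compound solution at a set concentration, air-dried, then offered to 2nd-stage larvae held at 25° C. Living and dead larvae counted after 6 days; five larvae per group, two replicates.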

[2] = tested on: Adoxophyes honmai; test: Pesticidal test against Adoxophyes honmai (artificial feed dip); details: 144 h, 2-stage larvae, examined after 6 days, 25° C., read-out: pesticidal rate; for pest or weed control at 1 ppm: concentration 1 ppm
In short: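 Thin artificial feed slices dipped 30 s in test solution at a predetermined concentration, air-dried, then offered to 2nd-stage larvae. Kept at 25° C; live and dead larvae counted after 6 days. Five larvae per group, two replicates.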

[3] = tested on: Coptotermes formosanus; test: Pesticidal test against Coptotermes formosanus (treated filter paper); details: 120 h, concentration 30 ppm, examined after 5 days of treatment, 28° C., read-out: pesticidal rate
Procedure: Pesticidal Test against Coptotermes formosanus
20 μl of an acetone solution in which a test compound had been prepared at a predetermined concentration was added dropwise to the filter paper having a diameter of […] included in a polypropylene cup, and air-dried, and then 20 μl of water was added thereto. Coptotermes formosanus was released and the cup was capped. They were left to stand in a thermostatic chamber at 28° C., and the numbers of the living pests and the dead pests were examined after 5 days of treatment. The test was carried out with ten larvae per group in two replicates.

[4] = tested on: Spodoptera litura; test: Pesticidal test against Spodoptera litura (cabbage leaf dip); details: foliar, 144 h, concentration 1 ppm, 2-stage larvae, examined after 6 days, 25° C., read-out: pesticidal rate
In short: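 Cabbage leaf pieces dipped 30 seconds in compound solution at a predetermined concentration and air-dried, then offered to second-stage larvae, five per group in two replicates. Held at 25° C. Living and dead larvae counted after 6 days.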

[5] = tested on: Plutella xylostella; test: Pesticidal test against Plutella xylostella (cabbage leaf dip); details: foliar, 144 h, concentration 1 ppm, 2-stage larvae, examined after 6 days, 25° C., read-out: pesticidal rate
In short: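 Cabbage leaf pieces dipped 30 s in test solution at a predetermined concentration, air-dried, then offered to 2nd-instar larvae, five per group in duplicate. Held at 25° C; living and dead larvae counted after 6 days.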

[6] = tested on: Laodelphax striatellus; test: Pesticidal test against Laodelphax striatellus (rice seedling spray); details: 144 h, concentration 100 ppm, 3-stage larvae, examined after 6 days, 25° C., read-out: pesticidal rate
In short: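 Rice seedlings sprayed with 2.5 ml acetone solution of compound at a predetermined concentration, air-dried, then infested with third-stage Laodelphax striatellus larvae in capped water-containing tubes at 25 °C. Living and dead insects counted after 6 days; ten larvae per group, two replicates.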

[7] = tested on: Musca domestica; test: Pesticidal test against Musca domestica (petri dish dry film); details: 24 h, concentration 100 ppm, female adults, examined after 1 day, 25° C., read-out: pesticidal rate
In short: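 Dry film from 1 ml acetone solution of compound at a predetermined concentration, air-dried in a 9 cm petri dish; female adult flies released and dish capped. Held at 25° C; living and dead counted after 1 day. Five insects per group, two replicates.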

[8] = tested on: Helicoverpa armigera; test: Pesticidal test against Helicoverpa armigera (cabbage leaf disk dip); details: foliar, 72 h, concentration 1 ppm, 2-stage larvae, examined after 3 days, 25° C., read-out: pesticidal rate
In short: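 Cabbage leaf disks were dipped for 30 s in test solution at a set concentration and air-dried. Second-instar larvae were placed one per hole and held at 25 °C, with live and dead counts taken after 3 days. Five larvae per group were tested in two replicates.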

[9] = tested on: Rhipicephalus sanguineus; test: Insecticidal test for Rhipicephalus sanguineus (treated glass petri dish, Table A6); details: adults of Rhipicephalus sanguineus, 18 hour exposure, examined after 48 hours, in single
Procedure: Insecticidal Test for Rhipicephalus sanguineus
0.5 ml of a solution of acetone, the active ingredient, prepared to the prescribed dose was added dropwise into a glass petri dish with a diameter of 10 cm, and the acetone was evaporated at room temperature. About 10 adults of Rhipicephalus sanguineus per dish were added, and the dish was covered by another glass petri dish that was treated with the active ingredient in the same manner described above. After 18 hour exposure to the test substance, the adults were transferred into a glass petri dish that was not treated with the active ingredient. After 48 hours of the exposure, the conditions of the adults were examined and classified into “alive” and “dead (including a moribund condition)” to determine the death rate (in single).
As the comparative compounds, said Compounds (B), (C), and (D), and the following Compound (F) disclosed in WO2009/080203, and fipronil were used.

[10] = tested on: Blattella germanica; test: Pesticidal test against Blattella germanica (petri dish dry film); details: 24 h, concentration 100 ppm, female adults, examined after 1 day, 25° C., read-out: pesticidal rate
In short: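 Acetone solution of test compound at a predetermined concentration dried as a film in a 9 cm petri dish; female adult cockroaches released onto it and kept at 25° C. Living and dead counted after 1 day; five insects per group, two replicates.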

O=C(Nc1cccc(C(=O)Nc2c(I)cc(C(F)(C(F)(F)F)C(F)(F)F)cc2I)c1F)c1ccccc1 [6-1260, 3-benzamide-N-(2,6-diiodo-4-(perfluoropropan-2-yl)phenyl)-2-fluorobenzamide]
≥ 70%: pest or weed control at 1 ppm [1] | pest or weed control at 1 ppm [2] | pest or weed control at 30 ppm [3] | pest or weed control at 1 ppm [4] | pest or weed control at 1 ppm [5] | pest or weed control at 100 ppm [6] | pest or weed control at 100 ppm [7] | pest or weed control at 1 ppm [8]

CCc1cc(C(F)(C(F)(F)F)C(F)(F)F)cc(C)c1NC(=O)c1cccc(NC(=O)C2CC2)c1 [compound (F)]
0.0%: death rate ([9]; 0.673 mg/m^2) | death rate ([9]; 2.69 mg/m^2) | death rate ([9]; 10.8 mg/m^2)

O=C(Nc1c(I)cc(C(F)(C(F)(F)F)C(F)(F)F)cc1C(F)(F)F)c1cccc(NC(=O)c2cccnc2Cl)c1 [6-460, 2-chloro-N-(3-(2-iodo-4-(perfluoropropan-2-yl)-6-(trifluoromethyl)phenylcarbamoyl)phenyl)nicotinamide]
≥ 70%: pest or weed control at 10 ppm [1] | pest or weed control at 1 ppm [2] | pest or weed control at 30 ppm [3] | pest or weed control at 1 ppm [4] | pest or weed control at 1 ppm [5] | pest or weed control at 100 ppm [6] | pest or weed control at 100 ppm [7] | pest or weed control at 1 ppm [8]

N#Cc1cccc(C(=O)Nc2cccc(C(=O)Nc3c(I)cc(C(F)(C(F)(F)F)C(F)(F)F)cc3C(F)(F)F)c2F)c1 [6-1750]
≥ 70%: pest or weed control at 1 ppm [1] | pest or weed control at 1 ppm [2] | pest or weed control at 1 ppm [4] | pest or weed control at 1 ppm [5] | pest or weed control at 100 ppm [6] | pest or weed control at 100 ppm [7] | pest or weed control at 100 ppm [10] | pest or weed control at 1 ppm [8]

CN(C(=O)c1ccc(Cl)nc1)c1cccc(C(=O)Nc2c(I)cc(C(F)(C(F)(F)F)C(F)(F)F)cc2I)c1F [7-1303]
≥ 70%: pest or weed control at 1 ppm [1] | pest or weed control at 1 ppm [2] | pest or weed control at 1 ppm [4] | pest or weed control at 1 ppm [5] | pest or weed control at 100 ppm [6] | pest or weed control at 100 ppm [7] | pest or weed control at 100 ppm [10] | pest or weed control at 1 ppm [8]

CN(C(=O)c1cccc(C#N)c1)c1cccc(C(=O)Nc2c(I)cc(C(F)(C(F)(F)F)C(F)(F)F)cc2I)c1F [7-1280]
≥ 70%: pest or weed control at 1 ppm [1] | pest or weed control at 1 ppm [2] | pest or weed control at 1 ppm [4] | pest or weed control at 1 ppm [5] | pest or weed control at 100 ppm [6] | pest or weed control at 100 ppm [7] | pest or weed control at 100 ppm [10] | pest or weed control at 1 ppm [8]

CN(C(=O)c1cccc(F)c1)c1cccc(C(=O)Nc2c(I)cc(C(F)(C(F)(F)F)C(F)(F)F)cc2I)c1F [7-1262]
≥ 70%: pest or weed control at 1 ppm [1] | pest or weed control at 1 ppm [2] | pest or weed control at 1 ppm [4] | pest or weed control at 1 ppm [5] | pest or weed control at 100 ppm [6] | pest or weed control at 100 ppm [7] | pest or weed control at 100 ppm [10] | pest or weed control at 1 ppm [8]

N#Cc1cccc(C(=O)Nc2cccc(C(=O)Nc3c(I)cc(C(F)(C(F)(F)F)C(F)(F)C(F)(F)F)cc3I)c2F)c1 (centres unmarked) [6-1358]
≥ 70%: pest or weed control at 1 ppm [1] | pest or weed control at 1 ppm [2] | pest or weed control at 1 ppm [4] | pest or weed control at 1 ppm [5] | pest or weed control at 100 ppm [6] | pest or weed control at 100 ppm [7] | pest or weed control at 100 ppm [10] | pest or weed control at 1 ppm [8]

O=C(Nc1cccc(C(=O)Nc2c(Br)cc(C(F)(C(F)(F)F)C(F)(F)F)cc2C(F)(F)F)c1F)c1ccc(F)cc1 [6-1577]
≥ 70%: pest or weed control at 1 ppm [1] | pest or weed control at 10 ppm ([2]; concentration 10 ppm) | pest or weed control at 1 ppm [4] | pest or weed control at 1 ppm [5] | pest or weed control at 100 ppm [6] | pest or weed control at 100 ppm [7] | pest or weed control at 100 ppm [10] | pest or weed control at 1 ppm [8]

O=C(Nc1cccc(C(=O)Nc2c(I)cc(C(F)(C(F)(F)F)C(F)(F)F)cc2C(F)(F)F)c1)c1ccc(F)cc1 [6-427]
≥ 70%: pest or weed control at 1 ppm [1] | pest or weed control at 1 ppm [2] | pest or weed control at 1 ppm [4] | pest or weed control at 1 ppm [5] | pest or weed control at 100 ppm [6] | pest or weed control at 100 ppm [7] | pest or weed control at 100 ppm [10] | pest or weed control at 1 ppm [8]

O=C(Nc1cccc(C(=O)Nc2c(I)cc(C(F)(C(F)(F)F)C(F)(F)F)cc2C(F)(F)F)c1F)c1ccccc1 [6-1730]
≥ 70%: pest or weed control at 1 ppm [1] | pest or weed control at 1 ppm [2] | pest or weed control at 1 ppm [4] | pest or weed control at 1 ppm [5] | pest or weed control at 100 ppm [6] | pest or weed control at 100 ppm [7] | pest or weed control at 100 ppm [10] | pest or weed control at 1 ppm [8]

CN(C(=O)c1cccnc1Cl)c1cccc(C(=O)Nc2c(Br)cc(C(F)(C(F)(F)F)C(F)(F)C(F)(F)F)cc2C(F)(F)F)c1 (centres unmarked) [7-382]
≥ 70%: pest or weed control at 1 ppm [1] | pest or weed control at 1 ppm [2] | pest or weed control at 1 ppm [4] | pest or weed control at 1 ppm [5] | pest or weed control at 100 ppm [6] | pest or weed control at 100 ppm [7] | pest or weed control at 100 ppm [10] | pest or weed control at 1 ppm [8]

CN(C(=O)c1cccc(F)c1)c1cccc(C(=O)Nc2c(Br)cc(C(F)(C(F)(F)F)C(F)(F)F)cc2Br)c1F [7-1106]
≥ 70%: pest or weed control at 1 ppm [1] | pest or weed control at 1 ppm [2] | pest or weed control at 1 ppm [4] | pest or weed control at 1 ppm [5] | pest or weed control at 100 ppm [6] | pest or weed control at 100 ppm [7] | pest or weed control at 100 ppm [10] | pest or weed control at 1 ppm [8]

CN(C(=O)c1cccc(F)c1)c1cccc(C(=O)Nc2c(Br)cc(C(F)(C(F)(F)F)C(F)(F)F)cc2C(F)(F)F)c1F [7-1576]
≥ 70%: pest or weed control at 1 ppm [1] | pest or weed control at 1 ppm [2] | pest or weed control at 1 ppm [4] | pest or weed control at 1 ppm [5] | pest or weed control at 100 ppm [6] | pest or weed control at 100 ppm [7] | pest or weed control at 100 ppm [10] | pest or weed control at 1 ppm [8]

O=C(Nc1c(Br)cc(C(F)(C(F)(F)F)C(F)(F)F)cc1C(F)(F)F)c1cccc(NC(=O)c2c(F)cccc2F)c1F [6-1596]
≥ 70%: pest or weed control at 1 ppm [1] | pest or weed control at 1 ppm [2] | pest or weed control at 1 ppm [4] | pest or weed control at 1 ppm [5] | pest or weed control at 100 ppm [6] | pest or weed control at 100 ppm [7] | pest or weed control at 100 ppm [10] | pest or weed control at 1 ppm [8]

CN(C(=O)c1cccc(C#N)c1)c1cccc(C(=O)Nc2c(I)cc(C(F)(C(F)(F)F)C(F)(F)F)cc2C(F)(F)F)c1F [7-1750]
≥ 70%: pest or weed control at 1 ppm [1] | pest or weed control at 1 ppm [2] | pest or weed control at 1 ppm [4] | pest or weed control at 1 ppm [5] | pest or weed control at 100 ppm [6] | pest or weed control at 100 ppm [7] | pest or weed control at 100 ppm [10] | pest or weed control at 1 ppm [8]

O=C(Nc1c(Br)cc(C(F)(C(F)(F)F)C(F)(F)C(F)(F)F)cc1C(F)(F)F)c1cccc(NC(=O)c2cccnc2Cl)c1 (centres unmarked) [6-382]
≥ 70%: pest or weed control at 10 ppm [1] | pest or weed control at 1 ppm [2] | pest or weed control at 1 ppm [4] | pest or weed control at 1 ppm [5] | pest or weed control at 100 ppm [6] | pest or weed control at 100 ppm [7] | pest or weed control at 100 ppm [10] | pest or weed control at 1 ppm [8]
